In US8911953B2, “TDF-related compounds and analogs thereof, analogs and bioactive fragments” (Thrasos Innovation, Inc., priority 2005, dated 2014):
Positions of bridges follow the written chain, without caps; N, C: chain ends. No end group written: not given here.

System: HK-2 cells
Assay: Smad1 phosphorylation and nuclear translocation in HK-2 cells (immunofluorescence)
Format: cell-based, human
Settings: 1.3 uM and 33 uM compound
Protocol: Phosphorylation and nuclear translocation of Smads occurs following the activation of Type I and Type II receptors and subsequent signal transduction to intracellular Smad targets. Phosphorylation and nuclear translocation of R-Smad in HK-2, vascular endothelial, human prostate or other cells by TDFRP compounds is assayed by immuno-fluorescent microscopy methods, using anti-phospho Smad 1/5 antibodies according to the procedure of H Aoki, M Fujii, T Imamura, K Yagi, K Takehara, M Kato and K Miyazono. J. of Cell Sci. 114, 1483-1489, 2001) and by Western blot analysis (FIGS. 2, 3, 18, 2X).
For example, HK-2, human proximal tubule cells are incubated in culture medium alone or exposed TDFRP or control compounds for one hour ten minutes at 37 degree C. BMP-7 served as a positive control in the assay. Each well is rinsed with 1 mL prewarmed medium. 1 mL per well of cold Acetone/Methanol mix (1:1) is added and incubated for 2 minutes at room temperature to fix the cells. Wells are washed with 1 mL of cold PBS and blocked with 1 mL blocking buffer (3% BSA, 1% goat serum in PBS) for 7 minutes. Wells are aspirated without disturbing the cells, and 500 uL/well primary antibody is added (anti-phospho-Smad 1) at 0.056 ug/mL concentration in 3% BSA in PBS (no goat serum). Cells are incubated overnight at 4 degrees C. […]

CYFDDSSNVLCKKYRS (disulfide 1-11 (inferred); not fully specified) [SEQ ID NO:45]
Smad1 phosphorylation, activation and translocation in the nucleus: Smad1 phosphorylation, activation and translocation in the nucleus
